Measurements: PMC7308271, “Discovery of a new class of orthosteric antagonists with nanomolar potency at extrasynaptic GABAA receptors” (Scientific Reports, 2020)

Tests used:
[1] = target: T1, human α4β1δ receptors in δ-HEK cells (Homo sapiens, UniProt P18505+P48169); assay: Whole-cell patch-clamp electrophysiology, kinetic studies of GABA activation after 018 pre-application; type: cell-based
T1 construct: expressed in transfected cells; host or cells: δ-HEK (HEK293 Flp-In stably expressing human δ), transiently transfected with α4 and β1 1:1
Method: δ-HEK cells transiently expressing human α4β1δ receptors were seeded in 35 mm Petri dishes the day before experiment and used for recordings in a similar was as previously reported. On the day of experiment the dishes were transferred to the stage of an Axiovert 10 microscope (Zeiss, Germany), and the culture medium was exchanged for artificial balanced salt solution (ABBS) at room temperature (20−24 °C). The ABSS solution contained the following (in mM): NaCl 140, KCl 3.5, Na2HPO4 1.25, MgSO4 2, CaCl2 2, glucose 10, and HEPES 10; pH 7.35. The cells were viewed at 200× magnification, and cells containing green fluorescent protein were visualized with UV light from an HBO 50 lamp (Zeiss, Germany). The cells were approached with micropipettes of 1.2−3.3 MΩ resistance manufactured from 1.5 mm OD glass (World Precision Instruments, Sarasota, Florida) on a microelectrode puller, model PP-830 (Narishige, Tokyo, Japan). The intrapipette solution contained the following (in mM): KCl 140, MgCl2 1, CaCl2 1, EGTA 10, MgATP 2, and HEPES 10; pH 7.3. Standard patch-clamp techniques in voltage clamp mode[44] were used to record from cells in the whole-cell configuration using an EPC-9 amplifier (HEKA, Lambrecht, Germany). A clamping potential of −60 mV was used, and series resistance was 80% compensated. Whole-cell currents were recorded and subsequently analyzed using Pulse and PulseFit software (HEKA, Lambrecht, Germany).
ABSS solution containing the compounds were applied using two VC3–8xP pressurized application systems feeding into a sixteen-barreled perfusion pipette (ALA Scientific Instruments Inc., Farmingdale New York, USA) ending approximately 100 μm from the recorded cell. Between the compound applications, compound-free ABSS was applied from one of the barrels in order to quickly remove the compounds from the cell. […] The cells were left to recover for 1 min before the next application.
Current relaxations were fitted to a single or biexponential equation using a Simplex optimization algorithm (PulseFit; HEKA, Lambrecht, Germany). I(t)=I0+I1exp−t/τ1+I2exp−t/τ2
With I denoting the currents at a time t and τ1 and τ2 the time constants. All curve-fitting results were carefully inspected visually. In some cases, the current relaxations were fitted to both a mono- and a biexponential function and an F-test was applied to the residual sum of squares to determine the appropriateness of using a second component: F=(SSA−SSB)dfB/SSB(dfA−dfB)=(RMSA2−RMSB2)dfB/RMSB2(dfA−dfB) where SS and RMS are the sum of squares and root mean square deviation between fit and data, respectively. A and B refer to the single and biexponential fit, respectively. df represents the degree of freedom for each fit. Time constants were given as medians followed by the 25–75% percentile in square brackets.

[2] = test system: α3−5 containing GABAΑ receptors; assay: FMP assay, α3−5 containing receptors (summary); type: cell-based, human; conditions: range over subtypes; read-out: potencies (IC50) at α3−5 containing receptors
Method: HEK293 cells were maintained in DMEM containing GlutaMAX-I, supplemented with 10% FBS and 1% penicillin-streptomycin and incubated at 37 °C and a humidity of 5% CO2. For expression of δ-containing GABAΑ receptors, a HEK293 Flp-In^ΤΜ cell line stably expressing the human GABAΑ δ-subunits (referred to as δ-HEK) was used and the γ-containing subtypes was expressed in a background HEK293 Flp-In^ΤΜ cell line stably expressing the G-protein coupled peptide receptor NPBWR2 (referred to as HEK background)[26], both positively selected for using 200 μg/mL hygromycin B. α1β2γ2 receptors were stably expressed in a HEK293 cell line maintained as above but with no selection (gift from Marianne L. Jensen, Neurosearch). […]
The FMP assay was performed as previously described with a few modifications. […] Data was obtained as changes in fluorescence units (∆RFU) by measuring emission at 560 nm caused by excitation at 530 nm. […]
Data obtained in the FMP assay are given as relative changes in fluorescence units (ΔRFU) by subtracting the average of the baseline fluorescence signal from the peak fluorescence signal after compound addition. […]

[3] = 100 μM GABA, 3 nM 018, biexponential fit
[4] = 100 μM GABA, 10 nM 018, biexponential fit
[5] = 100 μM GABA, 30 nM 018, biexponential fit
[6] = […] GABA, 10 nM 018, biexponential fit
[7] = […] GABA, 30 nM 018, biexponential fit, n = 5

T1 sequence (P48169 36-554): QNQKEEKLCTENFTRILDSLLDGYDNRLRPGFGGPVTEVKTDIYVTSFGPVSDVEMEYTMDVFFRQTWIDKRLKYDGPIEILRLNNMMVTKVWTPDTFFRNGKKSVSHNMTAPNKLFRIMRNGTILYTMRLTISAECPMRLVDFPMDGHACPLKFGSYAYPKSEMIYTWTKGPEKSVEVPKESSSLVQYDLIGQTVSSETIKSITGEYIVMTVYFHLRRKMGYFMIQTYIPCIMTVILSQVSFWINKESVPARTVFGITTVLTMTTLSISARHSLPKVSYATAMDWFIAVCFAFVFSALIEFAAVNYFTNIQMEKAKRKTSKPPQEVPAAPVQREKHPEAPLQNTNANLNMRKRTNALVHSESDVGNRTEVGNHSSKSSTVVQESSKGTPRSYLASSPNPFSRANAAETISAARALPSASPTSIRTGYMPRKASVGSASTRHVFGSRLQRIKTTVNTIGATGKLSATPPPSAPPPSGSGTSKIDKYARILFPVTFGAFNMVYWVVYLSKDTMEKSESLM
T1 sequence (P18505 26-474): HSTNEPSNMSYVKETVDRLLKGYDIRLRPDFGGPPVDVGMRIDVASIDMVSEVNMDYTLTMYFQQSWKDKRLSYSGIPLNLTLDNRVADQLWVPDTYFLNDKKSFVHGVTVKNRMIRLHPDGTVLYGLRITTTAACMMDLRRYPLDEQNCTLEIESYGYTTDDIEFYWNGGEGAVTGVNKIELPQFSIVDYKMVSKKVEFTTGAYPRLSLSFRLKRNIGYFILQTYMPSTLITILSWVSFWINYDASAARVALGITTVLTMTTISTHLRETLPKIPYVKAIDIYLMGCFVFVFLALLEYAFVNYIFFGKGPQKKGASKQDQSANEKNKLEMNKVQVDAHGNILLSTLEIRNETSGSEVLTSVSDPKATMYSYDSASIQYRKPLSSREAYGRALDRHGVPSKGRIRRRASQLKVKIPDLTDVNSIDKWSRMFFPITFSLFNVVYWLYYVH
T1 sequence (O14764 25-452 partner): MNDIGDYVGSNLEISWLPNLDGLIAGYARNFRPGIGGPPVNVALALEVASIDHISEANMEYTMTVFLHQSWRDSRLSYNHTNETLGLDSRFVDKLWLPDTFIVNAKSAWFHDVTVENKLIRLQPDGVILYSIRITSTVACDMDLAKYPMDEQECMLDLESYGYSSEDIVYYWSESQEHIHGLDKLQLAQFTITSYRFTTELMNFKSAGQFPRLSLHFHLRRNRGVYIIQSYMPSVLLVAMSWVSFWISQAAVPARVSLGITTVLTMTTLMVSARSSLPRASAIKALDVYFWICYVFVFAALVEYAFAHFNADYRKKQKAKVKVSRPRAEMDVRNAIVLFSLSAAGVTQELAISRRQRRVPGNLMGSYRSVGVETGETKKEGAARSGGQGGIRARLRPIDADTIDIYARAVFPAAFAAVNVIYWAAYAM

With NCCCC(=O)O [GABA] the “t1 (ms), activation time constant” value ([1]; 100 μM GABA alone (0 nM 018), monoexponential fit, median) was 35.0 ms and the “τ (ms), activation time constant” value ([1]; […] GABA alone (0 nM 018), monoexponential fit, median [25–75% quartiles]) was 174 [148;186]^a ms.
O=C(Nc1cccc(C(=O)N2CCC3(CCNCC3)CC2)c1)c1cccs1 [compound 018, N-(3-(3,9-diazaspiro[5.5]undecane-3-carbonyl)phenyl)thiophene-2-carboxamide] was tested, and the IC50 [2] was 37 to 88 nM, the “t1” value ([1]; 100 μM GABA, 0.1 nM 018, monoexponential fit) was 37.1 ms and the “%A1” value ([1]; 100 μM GABA, 3 nM 018) was 81.5%. For the same compound, the “t1” value [1, 3] was 29.6 ms, the “t2” value [1, 3] was 1070 ms and the “%A1” value ([1]; 100 μM GABA, 10 nM 018) was 33.9%. The “t1” value [1, 4] was 41.4 ms, the “t2” value [1, 4] was 2170 ms and the “%A1” value ([1]; 100 μM GABA, 30 nM 018) was 7.5%. For the same compound, the “t1” value [1, 5] was 34.0 ms, the “t2” value [1, 5] was 3685 ms and the “τ1 (ms)” value ([1]; […] GABA, 0.1 nM 018, monoexponential fit) was 119 [101;167]^a ms. For the same compound, the “τ2 (ms)” value ([1]; […] GABA, 3 nM 018, biexponential fit) was 1090 [960;2180] — ms, the “τ1 (ms)” value ([1]; […] GABA, 3 nM 018, biexponential fit, n = 7) was 147 [115;183] ms and the “%A1” value ([1]; […] GABA, 3 nM 018, fast component share of total current) was 83.8 — %. The “τ1 (ms)” value ([1]; […] GABA, 3 nM 018, monoexponential fit, n = 3) was 123 [73.3;273] ms, the “%A1” value ([1]; […] GABA, 10 nM 018) was 39.6% and the “τ1 (ms)” value [1, 6] was 107 [57.5;180] ms. The “τ2 (ms)” value [1, 6] was 2170 [1970;3010] ms, the “%A1” value ([1]; […] GABA, 30 nM 018) was 8.3 — % and the “τ1” value [1, 7] was 68.0 ms. The “τ1 (ms)” value [1, 7] was 68.0 [56.3;106] — ms, the “τ2 (ms)” value [1, 7] was 3780 [3160;4710] ms and the “τ2 (ms)” value ([1]; […] GABA, 30 nM 018, monoexponential fit, n = 3) was 4270 [4140;4920] ms. For the same compound, the “τ2 (ms)” value ([1]; […] GABA, 1000 nM 018, monoexponential fit) was 3780 [3330;5350]^a ms.
